{
  "source": "patent US5534242A",
  "about": "“Lidocaine-vasoconstrictor aerosol preparation” (priority 1995, dated 1996)",
  "key": {"[1]": {"conditions": "cited from earlier work"}, "[2]": {"experiment": "Solubilization of vasoconstricting agents in HFC propellants with lidocaine base; stability of the formulations", "conditions": "for Behaviour of ethanol solution on addition of HFC-134a: ethanol solution also containing lidocaine free base; for Solubility in lidocaine base/HFC-134a solution: base form dissolved in ethanol (Formulations 11 and 12)", "protocol": "The formulations of this invention can be manufactured in different ways. In one method, the lidocaine and vasoconstricting agent are dissolved in the organic solvent and place in the aluminum canister which is then capped and pressure filled with propellant. Where an organic solvent is not required, the lidocaine and vasoconstricting agent are dissolved in the propellant which is then pressure filled into the closed empty aluminum canister.\nThese formulations are presented for exemplary purposes only and by no means limit the scope and content of the invention defined by the claims."}, "nasal mucosa": {"system": "nasal mucosa", "conditions": "cited from earlier work"}},
  "note": "Where a name gives a salt, the structure may show the parent alone.",
  "data": [
    {"smiles": "OCc1ccccc1", "note": "[Benzyl alcohol]", "values": [
      {"measurement": "Solubility of organic solvent in HFC-134a", "setting": "HFC-134a, no lidocaine", "value": "not soluble"}
    ]},
    {"smiles": "COC(=O)[C@H]1[C@@H](OC(=O)c2ccccc2)C[C@@H]2CC[C@H]1N2C", "note": "[Cocaine]", "values": [
      {"measurement": "Dose that may cause systemic toxicity", "setting": "[1]; even small doses", "value": "approximately 30 mg"},
      {"measurement": "Tolerability", "setting": "[1]; most patients", "value": "well tolerated by most patients"}
    ]},
    {"smiles": "CCN(CC)CC(=O)Nc1c(C)cccc1C", "note": "[Lidocaine base, 2-(diethylamino)-2',6'-acetoxylidide]", "values": [
      {"measurement": "Behaviour of ethanol solution on addition of HFC-134a", "setting": "[2]; HFC-134a", "value": "remained in solution"},
      {"measurement": "Vasoconstriction of the mucosa", "setting": "nasal mucosa", "value": "does not vasoconstrict the mucosa"}
    ]},
    {"smiles": "CNC[C@H](O)c1cccc(O)c1", "note": "[Phenylephrine]", "values": [
      {"measurement": "Decongestion of the nasal mucosa", "setting": "nasal mucosa", "value": "excellent decongestion"}
    ]},
    {"smiles": "COc1ccc(OC)c(C(O)C(C)N)c1", "note": "(stereo not shown) [methoxamine]", "values": [
      {"measurement": "Solubility in lidocaine base/HFC-134a solution", "setting": "[2]", "value": "readily soluble"}
    ]},
    {"smiles": "CNC[C@H](O)c1cccc(O)c1", "note": "[phenylephrine base]", "values": [
      {"measurement": "Clear and stable solution with phenylephrine base substituted for the hydrochloride in formulation 9", "setting": "[2]; diethylene glycol, lidocaine base, HFC-134a", "value": "Clear and stable solutions"}
    ]},
    {"smiles": "CNC[C@H](O)c1cccc(O)c1", "note": "[phenylephrine hydrochloride, (R)-3-hydroxy-alpha-[(methylamino)methyl]benzene methanol hydrochloride]", "values": [
      {"measurement": "Behaviour of ethanol solution on addition of HFC-134a", "setting": "[2]; HFC-134a", "value": "remained in solution"},
      {"measurement": "Behaviour of ethyl alcohol solution on addition of HFC-134a", "setting": "2.5% w/w in ethyl alcohol, HFC-134a, no lidocaine", "value": "precipitated out of solution"},
      {"measurement": "Solubility in HFC propellants", "setting": "HFC-134a and HFC-227, no lidocaine", "value": "insoluble"},
      {"measurement": "Additional ethyl alcohol required to maintain a solution in HFC-134a in the absence of lidocaine base", "setting": "HFC-134a, versus with lidocaine base, almost 50% more", "value": "~50", "unit": "%"},
      {"measurement": "Solubility of combination with benzyl alcohol in HFC-134a", "setting": "benzyl alcohol + HFC-134a, no lidocaine", "value": "not soluble"},
      {"measurement": "Solubility in benzyl alcohol", "setting": "benzyl alcohol, HFC-134a added, no lidocaine", "value": "remained in solution"},
      {"measurement": "Solubility in diethylene glycol", "setting": "diethylene glycol", "value": "soluble"},
      {"measurement": "Solubility of combination with diethylene glycol in HFC-134a", "setting": "diethylene glycol + HFC-134a, no lidocaine", "value": "not soluble"},
      {"measurement": "Solubility in propylene glycol", "setting": "propylene glycol", "value": "soluble"},
      {"measurement": "Solubility of combination with propylene glycol in HFC-134a", "setting": "propylene glycol + HFC-134a, no lidocaine", "value": "not soluble"}
    ]},
    {"smiles": "CC(N)C(O)c1ccccc1", "note": "(stereo not shown) [phenylpropanolamine]", "values": [
      {"measurement": "Solubility in lidocaine base/HFC-134a solution", "setting": "[2]", "value": "readily soluble"}
    ]}
  ]
}
